Source: patent publication US20260034252A1, “FIBROBLAST ACTIVATION PROTEIN-TARGETED COMPOSITIONS AND METHODS OF USE THEREOF” (Ratio Therapeutics, Inc., priority 2022, published 2026)

What was measured:
[1] = tested on: U-87 (human glioblastoma) cells; experiment: Detection of tumors in BALB/c nude mice transplanted with U-87 cells; assay type: in vivo; settings: 1 μg intravenous injection, one hour
Procedure: BALB/c nude mice were transplanted with approximately 10^7 U-87 (human glioblastoma) cells and the tumors allowed to develop. 1 μg of an ^18F-labeled FAP-targeted agent of the invention, RTX-1312S (prepared according to Example 13), was administered to the mice by intravenous injection (e.g., tail vein), which were then sacrificed after one hour. FIG. 1a illustrates tumor binding of the ^18F-labeled FAP-targeted compound in mice.

FAP = FAP (Homo sapiens (Human), UniProt Q12884); experiment: FAP protease inhibition assay (FAM-labeled substrate peptide, microfluidic electrophoresis); assay type: biochemical; settings: enzyme 0.5 nM, substrate peptide 1 uM, 15 minutes pre-incubation, three hours for human FAP
Procedure: Protease reactions were assembled in 384 well plates (Greiner) in a total volume of 20 uL as described below.
Recombinant proteins were pre-diluted in assay buffer comprising of 100 mM HEPES, pH 7.5, 0.1% BSA, 0.01% Triton X-100, 1 mM DTT, and dispensed into 384 well plate (10 uL per well). Test compounds were serially pre-diluted in DMSO and added to the assay wells by acoustic dispensing (Labcyte Echo 550). Control samples (0%-inhibition in the absence of inhibitor, DMSO only) and 100%-inhibition (in the absence of enzyme) were assembled in replicates of four and used to calculate the %-inhibition in the presence of compounds. Concentration of DMSO was equalized to 1% in all samples.
Compounds were pre-incubated with enzymes for 15 minutes. Human FAP was obtained from Enzo, catalogue number BML-SE409-0010. […] Final concentration of enzymes were 0.5 nM. Final concentration of substrate peptides was 1 uM.
The reactions were allowed to proceed at room temperature. Incubation time was three hours for human FAP, 0.5 hours for mouse FAP.
Terminated plates were analyzed using a microfluidic electrophoresis instrument (Caliper LabChip® 3000, Caliper Life Sciences/Perkin Elmer). A change in relative intensity of the peptide substrate and cleaved product was the parameter measured. Activity in each test sample was determined as the product to sum ratio (PSR):P/(S+P), where P is the peak height of the product, and S is the peak height of the substrate. Percent inhibition (Pinh) was determined using the following equation: Pinh=(PSR0% inh−PSRcompound)/(PSR0% inh−PSR100% inh)*100, in which: PSRcompound is the product/sum ratio in the presence of compound, PSR0% inh is the product/sum ratio in the absence of compound and the PSR100% inh is the product/sum ratio in the absence of the enzyme.

Sequence of FAP (Q12884 whole entry): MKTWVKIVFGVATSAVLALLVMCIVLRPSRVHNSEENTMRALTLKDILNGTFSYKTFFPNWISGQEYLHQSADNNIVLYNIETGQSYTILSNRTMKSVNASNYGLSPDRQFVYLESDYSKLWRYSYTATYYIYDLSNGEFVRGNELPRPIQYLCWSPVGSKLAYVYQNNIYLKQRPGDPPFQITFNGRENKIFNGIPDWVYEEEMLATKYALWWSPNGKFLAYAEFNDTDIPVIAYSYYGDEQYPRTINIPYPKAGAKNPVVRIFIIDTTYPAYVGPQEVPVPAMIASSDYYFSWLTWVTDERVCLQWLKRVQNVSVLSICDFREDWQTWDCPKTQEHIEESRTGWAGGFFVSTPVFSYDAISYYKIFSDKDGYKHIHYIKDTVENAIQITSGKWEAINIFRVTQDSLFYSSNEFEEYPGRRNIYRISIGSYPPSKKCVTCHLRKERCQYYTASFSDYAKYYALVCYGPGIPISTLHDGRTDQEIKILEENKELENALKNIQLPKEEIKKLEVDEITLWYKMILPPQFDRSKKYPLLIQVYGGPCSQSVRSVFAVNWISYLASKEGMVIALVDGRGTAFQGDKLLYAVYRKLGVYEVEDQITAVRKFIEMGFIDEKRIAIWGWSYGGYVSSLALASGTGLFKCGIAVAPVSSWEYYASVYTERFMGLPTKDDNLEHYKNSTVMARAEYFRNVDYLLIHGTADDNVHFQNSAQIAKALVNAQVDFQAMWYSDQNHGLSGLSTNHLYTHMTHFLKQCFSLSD

## CC(=O)NCCCC[C@H](NC(=O)[C@H](CCCCNC(=S)Nc1ccc(CC2CN(CC(=O)O)CCN(CC(=O)O)CCN2CC(=O)O)cc1)NC(=O)CCOCCOCCOCCNC(=O)COc1ccc2c(C(=O)NCC(=O)N3CCC[C@H]3C#N)ccnc2c1)C(=O)O (stereo partly drawn) [RTX-1312S, (S)-2-[(S)-2-(3-{2-[2-(2-{2-[4-({2-[(S)-2-Cyano-1-pyrrolidinyl]-2-oxoethylamino}carbonyl)-7-quinolyloxy]acetylamino}ethoxy)ethoxy]ethoxy}propionylamino)-6-[3-(p-{[1,4,7-tris(carboxymethyl)-1,4,7-triazonan-2-yl]methyl}phenyl)thioureido]hexanoylamino]-6-acetylaminohexanoic Acid]
[1]
  tumor binding of 18F-labeled compound: tumor binding
FAP
  IC50: < 100 pM
